Source: BindingDB's records for doi:10.1016/0960-894X(95)00055-X (1995)

Target: Trehalase (Sus scrofa)
Assay: Evaluated for the inhibition of trehalase from porcine kidneys

Ki: 180 nM
SMILES: OCC1=CC(NC2COC(CO)C(O)C2O)C(O)C(O)C1O (stereo unspecified) [6-(4,5-Dihydroxy-6-hydroxymethyl-tetrahydro-pyran-3-ylamino)-4-hydroxymethyl-cyclohex-4-ene-1,2,3-triol]
